Assay results: PMC9658668, “Phytochemical Variability, In Vitro and In Vivo Biological Investigations, and In Silico Antibacterial Mechanisms of Mentha piperita Essential Oils Collected from Two Different Regions in Morocco” (Foods, 2022)
Marks after values point to notes of the source that are not given here.

Legend:
[1] = DPPH radical-scavenging activity
Procedure: The essential oil of Mentha piperita was performed using a 1,1-diphenyl-2-picryl hydrazyl (DPPH) technique, as reported in Brand-Williams et al. with some changes. Briefly, a 2.5 mL aliquot of DPPH solution was mixed with 1.25 mL of the essential oil at a concentration of 1 mg/mL, and then the obtained solution was incubated at 25 °C for 30 min. The absorbance was measured at 517 nm.

[2] = Trolox equivalent antioxidant capacity (ABTS) assay
Procedure: The assay was carried out using the ABTS^+ method as described by Re et al. with some modifications. Briefly, the ABTS radical cation was generated by mixing 10 mL of 2 mM ABTS with 100 µL of potassium persulfate (2.45 mM). After the reaction mixture is kept in the dark at room temperature for 16 h, methanol is used to dilute the ABTS solution to obtain an absorbance of 0.700 at 734 nm. Two hundred µL of the essential (1 mg/mL) was mixed with 2 mL of diluted ABTS solution. The mixture was allowed to react for 1 min, and the absorbance was measured at 734 nm. Trolox is used as a reference standard. The results were expressed as an IC50 value (µg/mL).

H2O2-scavenging activity = assay: H2O2-scavenging activity
Procedure: The H2O2 radical scavenging activity of extracts was determined according to the method described by Ruch et al.. Briefly, 40 mM of H2O2 solution was prepared in phosphate buffer (pH 7.4). A total of 1 mL of M. piperita HE at a concentration of 1 mg/mL was added to 0.6 mL of H2O2 solution. The mixture was incubated at 25 °C for 10 min, and the absorbance of H2O2 was determined at 230 nm against a blank solution containing phosphate buffer without H2O2. The positive control used is Ascorbic acid. The H2O2 trapping capacity was expressed as an IC50 value (µg/mL).

E. coli ATCC 25922 = assay: MIC and MBC determination; format: cell-based, Escherichia coli; set-up: MBC: unit not given beside the values
Procedure: (§1) The antibacterial activity of M. piperita essential oils (MPEO) from Ouezzane and Azrou regions (Morocco) was evaluated against the following six bacterial strains: three gram-positive bacteria (Staphylococcus aureus ATCC 29213, Listeria monocytogenes ATCC 13932, Bacillus subtilis ATCC 6633), and three gram-negative bacteria (Escherichia coli ATCC 25922, Salmonella typhimurium ATCC 700408, and Pseudomonas aeruginosa ATCC 27853).
(§2) An inoculum of the frozen stock (−20 °C) was utilized to inoculate Mueller–Hinton Agar (Biokar, Beauvais, France), where it was incubated for 24 h at 37 °C to revive the bacteria. Then, an inoculum was removed from a bacterial colony and diluted to 0.5 McFarland in sterile salt water (0.9% NaCl) before being transferred to a sterile tube where the weighty particles were left to settle for 5 min. The top homogeneous solutions were transferred to a new, sterile tube and their concentration was adjusted to the 0.5 McFarland turbidity standard to obtain an inoculum of about […], which was used in the antibacterial testing
(§3) The minimum inhibitory concentration (MIC) is the lowest essential oil concentration that could prevent the growth of bacteria. […]
(§4) The MBC was determined to be the minimum concentration at which no growth occurred in the medium. […]

[3] = tested on: S. typhimurium ATCC 700408; assay: MIC and MBC determination; format: cell-based, Salmonella typhimurium
Procedure: as §1, §2
(§5) The minimum inhibitory concentration (MIC) is the lowest essential oil concentration that could prevent the growth of bacteria. The determination of MIC values against bacteria was conducted according to the previously reported procedure with a minor change, using Mueller–Hinton broth (Biokar, Beauvais, France) and bacteria. Twenty-four h of incubation was done at 37 °C. The antibiotic chloramphenicol served as a positive control. In sterile microtubes, two-fold serial dilutions of EO concentrations ranging from 4% to 0.0625 % (v/v) were made in Mueller–Hinton broth containing 5% of DMSO. […] Then, 5 µL of the previously produced bacterial suspension was added to each tube. Each suspension was homogenized and incubated for 24 h at 37 °C. As a first negative control, microtubes containing liquid medium and EO were used. […]
as §4

P. aeruginosa ATCC 27853 = assay: MIC and MBC determination; format: cell-based, Pseudomonas aeruginosa; set-up: unit not given beside the values; conditions: chloramphenicol, unit not given
Procedure: as §1, §2, §3, §4

S. aureus ATCC 29213 = assay: MIC and MBC determination; format: cell-based, Staphylococcus aureus; set-up: MBC: unit not given beside the values
Procedure: as §1, §2, §3, §4

[4] = tested on: L. monocytogenes ATCC 13932; assay: MIC and MBC determination; format: cell-based, Listeria monocytogenes; set-up: MIC / MBC: unit not given beside the values
Procedure: as §1, §2, §5, §4

B. subtilis ATCC 6633 = assay: MIC and MBC determination; format: cell-based, Bacillus subtilis; set-up: MIC / MBC: unit not given beside the values
Procedure: as §1, §2, §5, §4

[5] = tested on: carrageenan-induced rat paw edema; assay: Carrageenan-induced paw edema; format: in vivo, Wistar rats; conditions: EO 100 mg/kg oral, indomethacin 10 mg/kg
Procedure: The studies were carried out on adult rats of the Wistar strain, obtained from the central animal facility of the Faculty of Medicine and Pharmacy of Rabat. These rats weighed between 200 and 250 g. The temperature was maintained at 20 °C with a lighting cycle of 12 h of light and 12 h of darkness. The study was approved by the Ethics Committee from Mohammed V University, (Protocol code # UA-2021-09; date of approval 27 May 2021).
The anti-inflammatory effects were studied using the carrageenan-induced paw edema method previously described by Musa G. Rege et al.. Briefly, Wistar rats (160 to 200 g) were randomly divided into […] (n = 6). The first two groups were orally administered with 100 mg/kg of M. pepirita EO. The third group was a negative control which received distilled water, while the last group was considered a positive control and received indomethacin (10 mg/kg) as the reference anti-inflammatory drug. After 60 min, all rats were injected subcutaneously with carrageenan solution (0.05 mL of 1% carrageenan suspended in 0.9% NaCl) into the subplantar region of the left hind paw. […] The anti-inflammatory effect is calculated using the following equation. In each group, the anti-inflammatory effect is measured by the percentage of edema inhibition (% INH) in paw volume, as follows: %INH = (mean [VL − VR] Control − mean [VL − VR] Treated)/[VL − VR] Control × 100 • With: VL: volume of the left paw. • VR: volume of the right paw.

[6] = chloramphenicol, unit not given

Compound: O=C1O[C@H]([C@@H](O)CO)C(O)=C1O [Ascorbic acid]
- DPPH IC50 [1]: 09.03 ± 0.02 ^a µg/mL
- ABTS Test IC50 [2]: 74.81 ± 0.01 ^a µg/mL
- H2O2 IC50 (H2O2-scavenging activity): 3.23 ± 0.08 ^a µg/mL

Compound: O=C(N[C@H](CO)[C@H](O)c1ccc([N+](=O)[O-])cc1)C(Cl)Cl [Chloramphenicol]
- MBC/MIC (E. coli ATCC 25922): 1.0
- MBC (E. coli ATCC 25922; [6]): 8.0
- MBC/MIC [3]: 1.0
- MBC [3, 6]: 64.0
- MIC [3, 6]: 64.0
- MBC (P. aeruginosa ATCC 27853): >64.0
- MIC (P. aeruginosa ATCC 27853): >64.0
- MBC/MIC (S. aureus ATCC 29213): 1.0
- MBC (S. aureus ATCC 29213; [6]): 4.0
- MBC/MIC [4]: 1.0
- MBC [4, 6]: 2.0
- MIC [4, 6]: 2.0
- MBC/MIC (B. subtilis ATCC 6633): 1.0
- MBC (B. subtilis ATCC 6633; [6]): 32.0
- MIC (B. subtilis ATCC 6633; [6]): 32.0

Compound: COc1ccc2c(c1)c(CC(=O)O)c(C)n2C(=O)c1ccc(Cl)cc1 [Indomethacin]
- Mean Edema Volume (Left-Right Paw) ([5]; 1 h 30 min): 0.146 ± 0.04 mL
- Percentage Inhibition of Edema ([5]; 1 h 30 min): 69.77%
- Mean Edema Volume (Left-Right Paw) ([5]; 3 h): 0.178 ± 0.01 mL
- Percentage Inhibition of Edema ([5]; 3 h): 70.23%
- Mean Edema Volume (Left-Right Paw) ([5]; 6 h): 0.191 ± 0.01 mL
- Percentage Inhibition of Edema ([5]; 6 h): 59.61%
